Source: patent US20030207891A1, “Combination therapy for modulating the human sexual response” (Zonagen, Inc., priority 1997, published 2003)
Counter-ions that a name gives are not always drawn.

Legend:
[1] = system: corpus cavernosum; details: cited from earlier work; for erection after injection directly into the corpus cavernosum: hypodermic needle; for duration of erection after injection: intracavernosal, appropriate dose
[2] = system: male erectile dysfunction; details: 25 mg and 50 mg; cited from earlier work
[3] = system: impotentia erectionis; details: buccal, 100 I.U. three times a day for 14 days; cited from earlier work
[4] = system: spontaneous erections in men; test: Effect of phentolamine and a phosphodiesterase inhibitor on spontaneous erections in men (Example 3); type: in vivo, human; details: alone, no sexual stimulation
Excerpt: Example 3 describes a study on the effect of phentolamine and a phosphodiesterase inhibitor on spontaneous erections in men.
Papaverine, a known non-specific phosphodiesterase inhibitor, in combination with phentolamine mesylate was compounded in a rapidly dissolving formulation as set out in Table 5 except that papaverine at the doses indicated below was substituted for Sildenafil.

[5] = system: impotent men; details: ingestion; cited from earlier work

Structure (SMILES) | erection after injection directly into the corpus cavernosum [1] | further results
CCN(CC)CCOC(=O)C(Cc1cccc2ccccc12)CC1CCCO1 (mixture of isomers) [naftidrofuryl] | caused erection | –
CCCc1nn(C)c2c(=O)[nH]c(-c3cc(S(=O)(=O)N4CCN(C)CC4)ccc3OCC)nc12 [Sildenafil, 5-[2-ethoxy-5-(4-methylpiperazine-1-ylsulfonyl)phenyl]-1-methyl-3-proplyl-6,7-dihydro-1-H-pyrazolo[4,3-d]pyrimidin-7-one] | – | effectiveness at various doses [2]: effective
CN(C)CCCN1c2ccccc2CCc2ccccc21 [imipramine] | caused erection | –
CC[C@H](C)[C@@H]1NC(=O)[C@H](Cc2ccc(O)cc2)NC(=O)[C@@H](N)CSSC[C@@H](C(=O)N2CCC[C@H]2C(=O)N[C@@H](CC(C)C)C(=O)NCC(N)=O)NC(=O)[C@H](CC(N)=O)NC(=O)[C@H](CCC(N)=O)NC1=O [oxytocin] | – | improvement of impotentia erectionis, patients treated [3]: 12 of the 16
COc1ccc(Cc2nccc3cc(OC)c(OC)cc23)cc1OC [papaverine] | caused erection | duration of erection after injection [1]: unrelenting erection lasting for hours
CC(COc1ccccc1)N(CCCl)Cc1ccccc1 (centres unmarked) [phenoxybenzamine] | caused erection | duration of erection after injection [1]: unrelenting erection lasting for hours
Cc1ccc(N(CC2=NCCN2)c2cccc(O)c2)cc1 [phentolamine mesylate] | – | spontaneous erections [4]: did not exhibit spontaneous erections
Cc1ccc(N(CC2=NCCN2)c2cccc(O)c2)cc1 [phentolamine] | caused erection | –
CC(=O)Oc1cc(C(C)C)c(OCCN(C)C)cc1C [thymoxamine] | caused erection | –
COc1ccc(CCN(C)CCCC(C#N)(c2ccc(OC)c(OC)c2)C(C)C)cc1OC (centres unmarked) [verapamil] | caused erection | –
COC(=O)[C@@H]1[C@H]2C[C@H]3c4[nH]c5ccccc5c4CCN3C[C@@H]2CC[C@@H]1O [yohimbine] | – | subjective improvement in erectile ability, impotent men treated [5]: 38%; treated patients reporting complete satisfaction [5]: 5%
